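Values below derive from 48-hour exposures of cells grown in 96-well plates, with endpoints linearly interpolated between the two concentrations bracketing the appropriate inhibition level. At the TGI there is no net growth.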
What was measured:
Assay in all cases: NCI tumour cell line growth inhibition, 48 h
[1] = test system: SNB-78 CNS
[2] = test system: HOP-62 NSCLC
[3] = test system: KM12 colon
[4] = test system: SF-268 CNS
[5] = test system: SK-MEL-5 melanoma
[6] = test system: 786-0 renal
[7] = test system: SF-539 CNS
[8] = test system: OVCAR-3 ovarian
[9] = test system: SN12C renal
[10] = test system: NCI-H460 lung
[11] = test system: IGROV1 ovarian
[12] = test system: SNB-19 CNS
[13] = test system: EKVX NSCLC
[14] = test system: OVCAR-4 ovarian
[15] = test system: DMS 114 small cell lung
[16] = test system: KM20L2 colon
[17] = test system: HCT-15 colon
[18] = test system: M14 melanoma
[19] = test system: NCI-H522 lung
[20] = test system: MOLT-4 leukemia
[21] = test system: OVCAR-5 ovarian
[22] = test system: K-562 leukemia
[23] = test system: MALME-3M melanoma
[24] = test system: DLD-1 colon
[25] = test system: HCC-2998 colon
[26] = test system: SK-MEL-2 melanoma
[27] = test system: HCT-116 colon
[28] = test system: DMS 273 small cell lung
[29] = test system: TK-10 renal
[30] = test system: HT29 colon
[31] = test system: HOP-92 NSCLC
[32] = test system: CAKI-1 renal
[33] = test system: SNB-75 CNS
[34] = test system: U251 CNS
[35] = test system: HOP-18 NSCLC
[36] = test system: A549 NSCLC
[37] = test system: SR leukemia
[38] = test system: CCRF-CEM leukemia
[39] = test system: LXFL 529 NSCLC
[40] = test system: SK-OV-3 ovarian
[41] = test system: OVCAR-8 ovarian
[42] = test system: RXF 393 renal
[43] = test system: COLO 205 colon
[44] = test system: SF-295 CNS
[45] = test system: A498 renal
[46] = test system: NCI-H226 lung
[47] = test system: SW-620 colon
[48] = test system: RXF-631 renal
[49] = test system: NCI-H23 lung
[50] = test system: ACHN renal
[51] = test system: UACC-257 melanoma
[52] = test system: HL-60(TB) leukemia
[53] = test system: M19-MEL melanoma
[54] = test system: LOX IMVI melanoma
[55] = test system: RPMI-8226 leukemia
[56] = test system: UACC-62 melanoma
[57] = test system: UO-31 renal
[58] = test system: SK-MEL-28 melanoma
[59] = test system: XF 498 CNS

## N#Cc1cccnc1Cl
[1]
  TGI: > 100 µM
[2]
  TGI: > 31.6 µM
[3]
  TGI: > 100 µM
[4]
  TGI: > 100 µM
[5]
  TGI: > 100 µM
[6]
  TGI: > 100 µM
[7]
  TGI: > 100 µM
[8]
  TGI: > 100 µM
[9]
  TGI: > 100 µM
[10]
  TGI: > 100 µM
[11]
  TGI: > 100 µM
[12]
  TGI: > 100 µM
[13]
  TGI: > 100 µM
[14]
  TGI: > 100 µM
[15]
  TGI: > 100 µM
[16]
  TGI: > 100 µM
[17]
  TGI: > 100 µM
[18]
  TGI: > 100 µM
[19]
  TGI: > 100 µM
[20]
  TGI: > 100 µM
[21]
  TGI: > 100 µM
[22]
  TGI: > 100 µM
[23]
  TGI: > 100 µM
[24]
  TGI: > 100 µM
[25]
  TGI: > 100 µM
[26]
  TGI: > 100 µM
[27]
  TGI: > 100 µM
[28]
  TGI: > 100 µM
[29]
  TGI: > 100 µM
[30]
  TGI: > 100 µM
[31]
  TGI: > 100 µM
[32]
  TGI: > 100 µM
[33]
  TGI: > 100 µM
[34]
  TGI: > 100 µM
[35]
  TGI: > 100 µM
[36]
  TGI: > 100 µM
[37]
  TGI: > 100 µM
[38]
  TGI: > 100 µM
[39]
  TGI: > 100 µM
[40]
  TGI: > 100 µM
[41]
  TGI: > 100 µM
[42]
  TGI: > 100 µM
[43]
  TGI: > 100 µM
[44]
  TGI: > 100 µM
[45]
  TGI: > 100 µM
[46]
  TGI: > 100 µM
[47]
  TGI: > 100 µM
[48]
  TGI: > 100 µM
[49]
  TGI: > 100 µM
[50]
  TGI: > 100 µM
[51]
  TGI: > 100 µM
[52]
  TGI: > 100 µM
[53]
  TGI: > 100 µM
[54]
  TGI: > 100 µM
[55]
  TGI: > 100 µM
[56]
  TGI: > 100 µM
[57]
  TGI: > 100 µM
[58]
  TGI: > 100 µM
[59]
  TGI: > 100 µM

## S=C1OC2CCCC[C@H]2O1 (stereo not given in full)
[1]
  TGI: > 100 µM
[2]
  TGI: > 100 µM
[3]
  TGI: > 100 µM
[4]
  TGI: > 100 µM
[5]
  TGI: > 100 µM
[6]
  TGI: > 100 µM
[7]
  TGI: > 100 µM
[8]
  TGI: > 100 µM
[9]
  TGI: > 100 µM
[10]
  TGI: > 100 µM
[11]
  TGI: > 100 µM
[12]
  TGI: > 100 µM
[13]
  TGI: > 100 µM
[14]
  TGI: > 100 µM
[15]
  TGI: > 100 µM
[16]
  TGI: > 100 µM
[18]
  TGI: > 100 µM
[19]
  TGI: > 100 µM
[20]
  TGI: > 100 µM
[21]
  TGI: > 100 µM
[22]
  TGI: > 100 µM
[24]
  TGI: > 100 µM
[25]
  TGI: > 100 µM
[26]
  TGI: > 100 µM
[27]
  TGI: > 100 µM
[28]
  TGI: > 100 µM
[29]
  TGI: > 100 µM
[30]
  TGI: > 100 µM
[31]
  TGI: > 100 µM
[32]
  TGI: > 100 µM
[33]
  TGI: > 100 µM
[34]
  TGI: > 100 µM
[35]
  TGI: > 100 µM
[36]
  TGI: > 100 µM
[37]
  TGI: > 100 µM
[38]
  TGI: > 100 µM
[39]
  TGI: > 100 µM
[40]
  TGI: > 100 µM
[41]
  TGI: > 100 µM
[42]
  TGI: > 100 µM
[43]
  TGI: > 100 µM
[44]
  TGI: > 100 µM
[46]
  TGI: > 100 µM
[47]
  TGI: > 100 µM
[48]
  TGI: > 100 µM
[49]
  TGI: > 100 µM
[50]
  TGI: > 100 µM
[51]
  TGI: > 100 µM
[52]
  TGI: > 100 µM
[53]
  TGI: > 100 µM
[54]
  TGI: > 100 µM
[55]
  TGI: > 100 µM
[56]
  TGI: > 100 µM
[57]
  TGI: > 100 µM
[58]
  TGI: > 100 µM
[59]
  TGI: > 100 µM
